In US9131719B2, “Use of certain neoflavonoids for intensifying and/or producing a sensory impression of sweetness” (SYMRISE AG, priority 2011, dated 2015):

Legend:
Format in all cases: in vivo
[1] = tested on: bitterness of a solution containing 100 ppm naringin; experiment: Reduction of bitterness of a solution of bitter substance (naringin), assessed by a panel of experts; conditions: 25 ppm test substance
Source text: (§1) To quantify the reduction (i.e. the masking or decrease) of the impression of bitterness in a sample, the bitterness of a solution containing 500 ppm caffeine or 100 ppm naringin was compared by a panel of experts, in each case against a sample that contained 500 ppm caffeine or 100 ppm naringin and additionally the amount stated in each case of a substance to be assessed (with respect to capacity for reducing bitterness) (assessment scale: 1 [not bitter] through 10 [extremely bitter]). Evaluation, i.e. calculation of the reduction (in %) of the impression of bitterness, was based in each case on the mean values of the assessment of the panel of experts.

[2] = tested on: impression of sweetness of a 5 wt % sucrose solution; experiment: Intensification of the impression of sweetness of a sugar solution, assessed by a panel of experts; conditions: for % intensification of the impression of sweetness: calculated from mean values with vs without test substance; for Impression of sweetness (1-10) with: scale 1 [not sweet] to 10 [extremely sweet]; for sweetness intensifying action (in words): residue at position C5 instead of C7, compared with compounds to be used according to the invention
Experimental: For quantifying the intensification of the impression of sweetness, the sweetness of a 5 wt % sucrose solution (consisting of 5 wt % sucrose in water) and of a sample that consisted of water, 5 wt % sucrose and a specified amount (i.e. that given below in each case) of test substance was determined by a panel of experts. The assessment was based on a scale from 1 [not sweet] to 10 [extremely sweet]. The intensification of the impression of sweetness (in %) was calculated from the respective mean values of the assessments of the sucrose solution and of the respective sample to be investigated containing the test substance. The test substances used were in each case a racemic mixture of the following compounds to be used according to the invention. […]

[3] = tested on: bitterness of a solution containing 500 ppm caffeine; experiment: Reduction of bitterness of a solution of bitter substance (caffeine), assessed by a panel of experts; conditions: 50 ppm test substance
Source text: as §1

[4] = scale 1 [not bitter] through 10 [extremely bitter]
[5] = 50 ppm test substance in 5 wt % sucrose solution
[6] = 50 ppm test substance in water with 5 wt % sucrose

Row | Molecule | % intensification of the impression of sweetness [2, 5] | Impression of sweetness (1-10) with [2, 6] | further results
1 | COc1cc(OC)c2c(c1)OC(=O)C[C@H]2c1ccc(O)c(OC)c1 [(17) + (18), (4S)-4-(4-Hydroxy-3-methoxyphenyl)-5,7-dimethoxy-chroman-2-one (17) and (4R)-4-(4-hydroxy-3-methoxyphenyl)-5,7-dimethoxy-chroman-2-one (18)] | 37% (p < 0.002) | 7.1 ± 1.8 | % reduction of the impression of bitterness ([1]; calculated from mean values): 9.9%; Impression of bitterness (1-10) with [1, 4]: 4.8 ± 2.5
2 | (4S)-4-(4-Hydroxyphenyl)-7-methoxy-chroman-2-one (19) and (4R)-4-(4-hydroxyphenyl)-7-methoxy-chroman-2-one (20) [(19) + (20)] | 14% (p < 0.09) | 5.4 ± 1.1 | % reduction of the impression of bitterness ([3]; calculated from mean values): 9.9%; Impression of bitterness (1-10) with [3, 4]: 3.6 ± 1.5
3 | COc1cc(O)c2c(c1)OC(=O)C[C@H]2c1ccc(O)c(OC)c1 [(23) + (24), (4S)-5-Hydroxy-4-(4-hydroxy-3-methoxyphenyl)-7-methoxy-chroman-2-one (23) and (4R)-5-hydroxy-4-(4-hydroxy-3-methoxyphenyl)-7-methoxy-chroman-2-one (24)] | 47% | 7.6 ± 1.5 | –
4 | (4S)-7-Methoxy-4-(4-methoxyphenyl)chroman-2-one (1) and (4R)-7-methoxy-4-(4-methoxyphenyl)chroman-2-one (2) [(1) + (2)] | 12% (p < 0.08) | 5.4 ± 0.9 | –
5 | COc1cc([C@H]2CC(=O)Oc3cc(O)cc(OC)c32)ccc1O [(B), (4R)-7-hydroxy-4-(4-hydroxy-3-methoxyphenyl)-5-methoxy-chroman-2-one] | – | – | sweetness intensifying action (in words) [2]: much lower sweetness intensifying action
6 | COc1cc([C@@H]2CC(=O)Oc3cc(O)cc(OC)c32)ccc1O [(A), (4S)-7-Hydroxy-4-(4-hydroxy-3-methoxyphenyl)-5-methoxy-chroman-2-one] | – | – | sweetness intensifying action (in words) [2]: much lower sweetness intensifying action
7 | COc1cc([C@@H]2CC(=O)Oc3cc(O)cc(OC)c32)ccc1O [(A) + (B), (4S)-7-Hydroxy-4-(4-hydroxy-3-methoxyphenyl)-5-methoxy-chroman-2-one (A) and (4R)-7-hydroxy-4-(4-hydroxy-3-methoxyphenyl)-5-methoxy-chroman-2-one (B)] | 8% (p < 0.5) | 5.8 ± 1.4 | –
8 | CCCOc1ccc2c(c1)OC(=O)C[C@H]2c1ccc(O)cc1 [(11) + (12), (4S)-4-(4-Hydroxyphenyl)-7-propoxy-chroman-2-one (11) and (4R)-4-(4-hydroxyphenyl)-7-propoxy-chroman-2-one (12)] | – | – | % intensification of the impression of sweetness ([2]; 25 ppm test substance in 5 wt % sucrose solution): 14% (p < 0.09); Impression of sweetness (1-10) with ([2]; 25 ppm test substance in water with 5 wt % sucrose): 6.6 ± 1.5
